Laboratory results reported in US9931332B2, “Compositions and methods for treating primary effusion lymphoma” (University of Southern California, priority 2014, dated 2018).

Legend:
[1] = test system: BJAB cells; assay: Cell viability, MTS assay; assay type: cell-based; details: 5 days
Method: (§1) Cells from exponentially growing cultures were plated in untreated flat-bottom 96 well plates at a density of 5×10^3 cells/well, treated with an increasing concentration of the drugs and subsequently assessed for cell viability using the MTS reagent (3-4,5-dimethylthiazol-2yl)-5-(3-carboxy-methoxyphenyl)-2-(4-sulfophenyl)-2H-tetrazolium, inner salt) following the manufacturer's instructions (Promega). Percent cell survival was calculated based on the reading of cells grown in the presence of DMSO control. Experiments were performed in triplicate and have been repeated 2-3 times.

[2] = test system: PEL cell lines; assay: Cell viability, MTS assay; assay type: cell-based; details: for sensitivity of the 5 PEL cell lines to recombinant IFN: BC-3, BCBL-1, JSC-1, BC-1 and VG-1, 5 days; for PEL cell lines sensitive within physiologically achievable doses: 7 PEL cell lines, increasing concentrations
Method: as §1

[3] = test system: panel of hematological cancer cell lines; assay: Cell viability, MTS assay, panel of hematological cancer cell lines; assay type: cell-based; details: 5 days, increasing concentrations
Method: as §1

[4] = test system: BC-3 cells; assay: PEL orthotopic tumor model; assay type: in vivo, NOD.SCID mice; design: dose or concentration left out as unconfirmed; details: once daily for 28 days, intraperitoneally
Method: A total of 2×10^7 BC-3 cells were injected intraperitoneally into female NOD.SCID mice (NCI Frederick, 6 weeks old). 5 days after tumor cells inoculation the mice were randomly divided in to 4 groups (n=7 each). […] (once daily), JQ-1 50 mg/kg b.w. (once daily) and the combination were administered intraperitoneally daily for 28 days. Then the animals were monitored for survival. Body weight gain was measured once in 3 days as a surrogate measure of tumor progression (Qin et al., 2014). The experiments were performed following the guidelines of institutional animal ethics committee.

[5] = test system: BC-3 and BCBL-1 cells; assay: Combination index (Chou and Talalay, calcusyn), MTS viability; assay type: cell-based; details: low doses, 12 combinations each, all combination doses tested
Method: as §1

[6] = test system: PEL; details: treated for 18 months so far (Antar et al., 2014); cited from earlier work
[7] = test system: PEL cells; assay: Real-time qRT-PCR of mRNA expression; assay type: cell-based
Method: Real-time quantitative reverse transcript-polymerase chain reaction (qRT-PCR) was performed with SYBR Green using gene-specific PCR primers. Samples were run in triplicate, and PCR was performed by an ABI Step One Plus thermocycler (Applied Biosystems). GAPDH was used as housekeeping gene and qRT-PCR data (Ct values) was analyzed using the 2^−ΔΔCT method as described earlier (Zhao et al., 2007). The qRT-PCR data was presented as fold change in target gene expression±standard error.

[8] = test system: IL-6; assay: IL-6 ELISA in supernatants of BC-3 cells; assay type: cell-based, Human; details: 12, 24 and 48 h
Method: IL-6 was measured in supernatants using BD OptEIA™ Human IL-6 ELISA set as per manufacturer's instructions.

[9] = test system: IKKα/β, p100/p52 and RELB; assay: Immunoblot of NF-κB proteins; assay type: cell-based; details: BC-3, BCBL-1, JSC-1 and DG-75 cells, increasing doses
Method: (§2) Cells were lysed in lysis buffer containing 20 mM sodium phosphate (pH 7.4), 150 mM NaCl, 0.1% Triton X-100, 0.2 M PMSF, and 10% glycerol supplement with a protease inhibitor mixture tablet (Roche). Whole cell extracts were resolved by SD-polyacrylamide gel electrophoresis, transferred to nitrocellulose membrane, and probed with the indicated primary antibodies. Bound antibodies were detected with IRdye 680 or 800 (Licor biosciences) and blots were scanned with licor odyssey CLx imaging system (Licor biosciences). Primary antibodies used in these experiments were from the following sources: PARP (9542), NF-κB2 (p100/p52; 4882) from Cell Signaling; IRF4 (6059), IKZF1 (13039), HSP90 (69703), IKKα/β (7607), RELB (226) from Santa Cruz Biotechnology; MYC (1472-1, Epitomics); tubulin (T9026), cereblon (HPA045910) from Sigma; GAPDH (1107018, Ambion), IKZF3 (6255, Imgenex) and BRD4 (a gift from Dr. Peter Howley, Harvard Medical School).

[10] = test system: BC-3 and BCBL-1 cells; assay: Genome-wide microarray analysis; details: 5 μM, 24 h
Method: Two technical replicates per cell line per condition (8 samples total) were assayed on the Illumina Human HT12 BeadChip whole genome expression microarray, with coverage of 39809 coding transcripts and 3961 non-coding transcripts. Probe intensities were extracted directly from binary IDAT files using the ‘illuminaio’ package (Smith et al., 2013). Background correction and normalization was then performed using ‘limma’ package (Smyth, 2005). An estimate of the fraction of probes with detectable expression (approximately 47% of the probes present on the array) was extracted by comparing the negative control probe intensities with hybridization probe intensities; probes failing this cutoff were filtered from further analysis. An empirical Bayes linear model including treatment and cell-line specific effects was fitted to the filtered data, again using ‘limma’. […] Hierarchial clustering with Euclidean distance and centroid linkage was performed in R (http://www.R-project.org). A heat map of differences (corrected for cell-line-specific effects) was plotted.

[11] = test system: IKZF1 (Ikaros), IKZF3 (Aiolos); assay: Immunoblot of IKZF1 and IKZF3 expression; assay type: cell-based; details: BC-3 and BCBL-1, MLN4924 pretreatment 1 h then IMiDs 15 h
Method: as §2

[12] = molecular target: cereblon (CRBN) (Homo sapiens, UniProt Q96SW2); details: 48 h
Method: Cells were lysed in lysis buffer containing 20 mM sodium phosphate (pH 7.4), 150 mM NaCl, 0.1% Triton X-100, […], and 10% glycerol supplement with a protease inhibitor mixture tablet (Roche). Whole cell extracts were resolved by SD-polyacrylamide gel electrophoresis, transferred to nitrocellulose membrane, and probed with the indicated primary antibodies. Bound antibodies were detected with IRdye 680 or 800 (Licor biosciences) and blots were scanned with licor odyssey CLx imaging system (Licor biosciences).

[13] = BC-3, BCBL-1 and JSC-1, 5 μM, 24 h

cereblon (CRBN), sequence (Q96SW2 whole entry): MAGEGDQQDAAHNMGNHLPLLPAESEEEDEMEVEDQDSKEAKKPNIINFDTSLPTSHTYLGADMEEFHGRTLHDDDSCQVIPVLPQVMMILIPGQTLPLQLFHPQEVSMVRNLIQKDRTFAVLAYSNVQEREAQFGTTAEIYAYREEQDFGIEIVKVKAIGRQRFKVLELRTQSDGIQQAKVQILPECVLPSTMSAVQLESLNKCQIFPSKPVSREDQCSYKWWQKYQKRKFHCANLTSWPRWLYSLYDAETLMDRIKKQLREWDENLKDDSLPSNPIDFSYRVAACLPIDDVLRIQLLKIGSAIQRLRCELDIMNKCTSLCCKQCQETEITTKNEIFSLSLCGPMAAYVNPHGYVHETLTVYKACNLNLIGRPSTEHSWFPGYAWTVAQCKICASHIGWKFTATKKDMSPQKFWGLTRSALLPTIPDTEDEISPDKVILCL

Q: For IFN-γ: recombinant interferon γ, which “effect of recombinant IFN on BJAB” value [1] is on record?
A: The value was “without any significant effect”.

Q: What about the “sensitivity of the 5 PEL cell lines to recombinant IFN” value [2] of the same molecule?
A: The value was “sensitive”.

Q: With `O=C1CCC(N2C(=O)c3ccccc3C2=O)C(=O)N1` (stereo not shown) [thalidomide] as the molecule, how does the “effect on the growth of the cell lines” value [3] read?
A: The value was “did not have any major effect”.

Q: Which results are given for IFN-α?
A: effect of recombinant IFN on BJAB [1]: very little effect; sensitivity of BC-3, BCBL-1 and JSC-1 to recombinant IFN ([2]; 5 days): highly sensitive; sensitivity of the 5 PEL cell lines to recombinant IFN [2]: sensitive

Q: Which results are given for `Cc1sc2c(c1C)C(c1ccc(Cl)cc1)=N[C@@H](CC(=O)OC(C)(C)C)c1nnc(C)n1-2` [JQ-1]?
A: median survival [4]: 42 days; synergy of lenalidomide with BRD4 inhibitor (combination index) [5]: highly synergistic

Q: Which median survival [4] does the source give for `Nc1cccc2c1CN(C1CCC(=O)NC1=O)C2=O` (stereo not shown) [lenalidomide] here?
A: Its median survival is 35 days.

Q: And the “outcome of elderly HIV-negative, KSHV-positive PEL patient” value [6]?
A: The value was “without any symptoms or evidence of disease progression”.

Q: And the “mRNA levels of IKZF1” value [7, 13]?
A: The value was “moderately up-regulated”.

Q: What about the “mRNA levels of IRF4, MYC and its target TERT” value [7, 13] of the same molecule?
A: The value was “down-regulated mildly, and moderately”.

Q: And the “transcript levels of IFNs and interferon specific genes (ISGs)” value ([7]; BCBL-1 cells, 5 μM, 24 hours)?
A: Its value is “upregulated”.

Q: What about the “IL-6 secretion by BC-3 cells” value [8] of the same molecule?
A: Its value is “did not have any significant effect”.

Q: What about the “expression of IKKα/β, p100/p52 and RELB proteins” value [9] of the same molecule?
A: The value was “did not have any significant effect”.

Q: And the “PEL cell lines sensitive within physiologically achievable doses” value ([2]; 5 days)?
A: Its value is 5/7.

Q: What about the downregulated genes [10] of the same molecule?
A: Its downregulated genes is 390 genes.

Q: What about the upregulated genes [10] of the same molecule?
A: Its upregulated genes is 602 genes.

Q: What about the “genes whose expression changed significantly (pFDR<0.05)” value ([10]; both cell lines) of the same molecule?
A: The value was 992 genes.

Q: Which “effect on downregulation of IKZF1 by IMiDs” value [11] does the source give for `NS(=O)(=O)OC[C@@H]1C[C@@H](n2ccc3c(N[C@H]4CCc5ccccc54)ncnc32)C[C@@H]1O` [MLN4924] here?
A: The value was “completely blocked”.

Q: For `COc1ccccc1S(=O)(=O)Nc1ccc2c(c1)CN(C)C(=O)N2` [PFI-1], which “synergy of lenalidomide with BRD4 inhibitor (combination index)” value [5] is on record?
A: Its value is “highly synergistic”.

Q: With `COc1cc2c(cc1-c1c(C)noc1C)ncc1[nH]c(=O)n([C@H](C)c3ccccn3)c12` [IBET151] as the molecule, how does the “synergy of lenalidomide with BRD4 inhibitor (combination index)” value [5] read?
A: The value was “highly synergistic”.

Q: What does the source list for `Nc1cccc2c1C(=O)N(C1CCC(=O)NC1=O)C2=O` (stereo not shown) [pomalidomide]?
A: CRBN level in BCBL-1 cells [12]: no change; level of cereblon in BC-3 cells [12]: slight decrease; PEL cell lines sensitive within physiologically achievable doses ([2]; 5 days): 6/7
